Assay results from patent publication US20230002367A1, “BIFUNCTIONAL COMPOUNDS” (Hoffmann-La Roche Inc., priority 2019, published 2023).

Target: T1, SMARCA2 (Homo sapiens, UniProt P51531)
T1 construct: endogenous in cells
Assay: SMARCA2 HiBiT degradation assay (cellular)
Assay type: cell-based
Conditions: for Emax: A549, Emax = amount of residual protein remaining in the cell following compound treatment; for DC50: SMARCA2 HiBiT cells, luminescence readout, 11-point titration from 10 μM, 6 hours or 16 hours, read-out: HiBit A549 SMARCA2 IP

T1 sequence (P51531 whole entry): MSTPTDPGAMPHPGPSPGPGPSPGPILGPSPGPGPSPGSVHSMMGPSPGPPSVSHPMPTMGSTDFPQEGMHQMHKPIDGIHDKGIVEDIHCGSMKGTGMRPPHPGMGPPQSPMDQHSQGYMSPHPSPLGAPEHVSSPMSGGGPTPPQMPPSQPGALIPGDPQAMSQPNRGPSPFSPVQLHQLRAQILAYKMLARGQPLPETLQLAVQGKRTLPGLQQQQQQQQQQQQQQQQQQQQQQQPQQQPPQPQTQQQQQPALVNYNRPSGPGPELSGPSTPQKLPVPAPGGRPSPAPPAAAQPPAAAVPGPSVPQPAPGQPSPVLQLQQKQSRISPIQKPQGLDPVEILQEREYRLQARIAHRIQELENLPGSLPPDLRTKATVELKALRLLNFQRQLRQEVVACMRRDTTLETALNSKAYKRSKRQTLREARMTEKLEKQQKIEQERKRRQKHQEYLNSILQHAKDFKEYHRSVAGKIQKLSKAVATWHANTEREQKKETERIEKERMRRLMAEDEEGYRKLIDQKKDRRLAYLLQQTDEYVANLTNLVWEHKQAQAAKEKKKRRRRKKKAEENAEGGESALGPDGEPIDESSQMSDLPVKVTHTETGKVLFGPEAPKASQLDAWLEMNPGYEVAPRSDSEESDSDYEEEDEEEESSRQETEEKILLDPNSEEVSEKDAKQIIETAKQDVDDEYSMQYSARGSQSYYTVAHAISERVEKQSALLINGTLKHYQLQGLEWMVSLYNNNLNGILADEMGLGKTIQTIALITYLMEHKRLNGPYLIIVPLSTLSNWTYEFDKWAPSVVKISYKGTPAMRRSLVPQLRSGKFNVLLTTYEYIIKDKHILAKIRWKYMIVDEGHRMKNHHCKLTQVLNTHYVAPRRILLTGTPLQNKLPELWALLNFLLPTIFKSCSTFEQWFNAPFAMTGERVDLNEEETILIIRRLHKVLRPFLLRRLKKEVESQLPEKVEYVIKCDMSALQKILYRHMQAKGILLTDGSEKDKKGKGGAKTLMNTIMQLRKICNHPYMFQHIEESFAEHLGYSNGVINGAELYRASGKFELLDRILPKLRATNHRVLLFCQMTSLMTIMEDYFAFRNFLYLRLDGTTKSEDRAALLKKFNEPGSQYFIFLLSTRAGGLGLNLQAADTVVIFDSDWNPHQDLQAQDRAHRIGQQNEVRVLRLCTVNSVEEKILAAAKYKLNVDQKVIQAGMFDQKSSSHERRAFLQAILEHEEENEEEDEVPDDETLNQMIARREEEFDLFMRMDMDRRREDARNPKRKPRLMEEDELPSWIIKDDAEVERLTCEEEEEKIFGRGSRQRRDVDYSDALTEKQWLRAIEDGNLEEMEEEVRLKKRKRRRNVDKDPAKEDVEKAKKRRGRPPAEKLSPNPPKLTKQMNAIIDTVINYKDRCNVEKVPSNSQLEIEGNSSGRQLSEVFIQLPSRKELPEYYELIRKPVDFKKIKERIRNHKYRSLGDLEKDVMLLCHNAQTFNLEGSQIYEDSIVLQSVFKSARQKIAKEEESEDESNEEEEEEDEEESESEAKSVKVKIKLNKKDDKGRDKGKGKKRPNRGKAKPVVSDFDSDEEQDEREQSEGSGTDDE

Row | Emax | DC50 | HiBit A549 SMARCA2 Emax (%) (Emax = amount of residual protein remaining in the cell following compound treatment) | SMILES
1 | 63% | 0.204 µM | – | Cc1ncsc1-c1ccc([C@H](C)NC(=O)[C@@H]2C[C@@H](O)CN2C(=O)[C@@H](NC(=O)CCCCCCCCC(=O)N2CCN(c3ccc(CN4CCCC(Oc5cc(-c6ccccc6O)nnc5N)C4)cc3)CC2)C(C)(C)C)cc1 (mixture of isomers) [Example 41, rac-(2S,4R)-4-hydroxy-1-[rac-(2S)-2-[[10-[4-[4-[[3-[3-amino-6-(2-hydroxyphenyl)pyridazin-4-yl]oxy-1-piperidyl]methyl]phenyl]piperazin-1-yl]-10-oxo-decanoyl]amino]-3,3-dimethyl-butanoyl]-N-[rac-(1S)-1-[4-(4-methylthiazol-5-yl)phenyl]ethyl]pyrrolidine-2-carboxamide]
2 | 51% | 2.61 µM | – | Cc1ncsc1-c1ccc([C@H](C)NC(=O)[C@@H]2C[C@@H](O)CN2C(=O)[C@@H](NC(=O)CCOCCOCCOCCC(=O)N2CCN(c3ccc(N4CCCC(Oc5cc(-c6ccccc6O)nnc5N)C4)cc3)CC2)C(C)(C)C)cc1 (mixture of isomers) [Example 46, rac-(2S,4R)-4-hydroxy-1-[rac-(2S)-2-[3-[2-[2-[3-[4-[4-[3-[3-amino-6-(2-hydroxyphenyl)pyridazin-4-yl]oxy-1-piperidyl]phenyl]piperazin-1-yl]-3-oxo-propoxy]ethoxy]ethoxy]propanoylamino]-3,3-dimethyl-butanoyl]-N-[rac-(1S)-1-[4-(4-methylthiazol-5-yl)phenyl]ethyl]pyrrolidine-2-carboxamide]
3 | 55% | 0.733 µM | – | Cc1ncsc1-c1ccc([C@H](C)NC(=O)[C@@H]2C[C@@H](O)CN2C(=O)[C@@H](NC(=O)CCC(=O)N2CCN(c3ccc(N4CCCC(Oc5cc(-c6ccccc6O)nnc5N)C4)cc3)CC2)C(C)(C)C)cc1 (mixture of isomers) [Example 47, rac-(2S,4R)-4-hydroxy-1-[rac-(2S)-2-[[4-[4-[4-[3-[3-amino-6-(2-hydroxyphenyl)pyridazin-4-yl]oxy-1-piperidyl]phenyl]piperazin-1-yl]-4-oxo-butanoyl]amino]-3,3-dimethyl-butanoyl]-N-[rac-(1S)-1-[4-(4-methylthiazol-5-yl)phenyl]ethyl]pyrrolidine-2-carboxamide]
4 | 22% | 0.135 µM | – | Cc1ncsc1-c1ccc([C@H](C)NC(=O)[C@@H]2C[C@@H](O)CN2C(=O)[C@@H](NC(=O)CCCCCCCCCCC(=O)N2CCN(c3ccc(N4CCCC(Oc5cc(-c6ccccc6O)nnc5N)C4)cc3)CC2)C(C)(C)C)cc1 (mixture of isomers) [Example 48, rac-(2S,4R)-4-hydroxy-1-[rac-(2S)-2-[[12-[4-[4-[3-[3-amino-6-(2-hydroxyphenyl)pyridazin-4-yl]oxy-1-piperidyl]phenyl]piperazin-1-yl]-12-oxo-dodecanoyl]amino]-3,3-dimethyl-butanoyl]-N-[rac-(1S)-1-[4-(4-methylthiazol-5-yl)phenyl]ethyl]pyrrolidine-2-carboxamide]
5 | 60% | 1.66 µM | – | Cc1ncsc1-c1ccc([C@H](C)NC(=O)[C@@H]2C[C@@H](O)CN2C(=O)[C@@H](NC(=O)CCOCCC(=O)N(C)CC(COc2cc(-c3ccccc3O)nnc2N)c2ccccc2)C(C)(C)C)cc1 (mixture of isomers) [Example 49, rac-(2S,4R)-4-hydroxy-1-[rac-(2S)-2-[3-[3-[[3-[3-amino-6-(2-hydroxyphenyl)pyridazin-4-yl]oxy-2-phenyl-propyl]-methyl-amino]-3-oxo-propoxy]propanoylamino]-3,3-dimethyl-butanoyl]-N-[rac-(1S)-1-[4-(4-methylthiazol-5-yl)phenyl]ethyl]pyrrolidine-2-carboxamide]
6 | 48% | 1.65 µM | – | Cc1ncsc1-c1ccc(CNC(=O)[C@@H]2C[C@@H](O)CN2C(=O)[C@@H](NC(=O)CCCCCCCCC(=O)NCC(COc2cc(-c3ccccc3O)nnc2N)c2ccccc2)C(C)(C)C)cc1 (mixture of isomers) [Example 51, N-[3-[3-amino-6-(2-hydroxyphenyl)pyridazin-4-yl]oxy-2-phenyl-propyl]-N′-[rac-(1S)-2,2-dimethyl-1-[rac-(2S,4R)-4-hydroxy-2-[[4-(4-methylthiazol-5-yl)phenyl]methylcarbamoyl]pyrrolidine-1-carbonyl]propyl]decanediamide]
7 | 54% | 2.61 µM | – | Cc1ncsc1-c1ccc(CNC(=O)[C@@H]2C[C@@H](O)CN2C(=O)[C@@H](NC(=O)CCCCCC(=O)NC(COc2cc(-c3ccccc3O)nnc2N)c2ccccc2)C(C)(C)C)cc1 (mixture of isomers) [Example 62, N-[2-[3-amino-6-(2-hydroxyphenyl)pyridazin-4-yl]oxy-1-phenyl-ethyl]-N′-[rac-(1S)-2,2-dimethyl-1-[rac-(2S,4R)-4-hydroxy-2-[[4-(4-methylthiazol-5-yl)phenyl]methylcarbamoyl]pyrrolidine-1-carbonyl]propyl]heptanediamide]
8 | 48% | 0.798 µM | – | Cc1ncsc1-c1ccc(CNC(=O)[C@@H]2C[C@@H](O)CN2C(=O)[C@@H](NC(=O)CCCCCCCCC(=O)NC(COc2cc(-c3ccccc3O)nnc2N)c2ccccc2)C(C)(C)C)cc1 (mixture of isomers) [Example 63, N-[2-[3-amino-6-(2-hydroxyphenyl)pyridazin-4-yl]oxy-1-phenyl-ethyl]-N′-[rac-(1S)-2,2-dimethyl-1-[rac-(2S,4R)-4-hydroxy-2-[[4-(4-methylthiazol-5-yl)phenyl]methylcarbamoyl]pyrrolidine-1-carbonyl]propyl]decanediamide]
9 | 24% | 1.03 µM | – | Cc1ncsc1-c1ccc(CNC(=O)[C@@H]2C[C@@H](O)CN2C(=O)[C@@H](NC(=O)CCCCCCCCC(=O)N2CC(Oc3cc(-c4ccccc4O)nnc3N)CC(c3ccccc3)C2)C(C)(C)C)cc1 (mixture of isomers) [Example 65, rac-(2S,4R)-4-hydroxy-N-[[4-(4-methylthiazol-5-yl)phenyl]methyl]-1-[rac-(2S)-2-[[10-[3-[3-amino-6-(2-hydroxyphenyl)pyridazin-4-yl]oxy-5-phenyl-1-piperidyl]-10-oxo-decanoyl]amino]-3,3-dimethyl-butanoyl]pyrrolidine-2-carboxamide]
10 | 49% | 2.02 µM | – | Cc1ncsc1-c1ccc(CNC(=O)[C@@H]2C[C@@H](O)CN2C(=O)[C@@H](NC(=O)CCCCCC(=O)N2CC(Oc3cc(-c4ccccc4O)nnc3N)CC(c3ccccc3)C2)C(C)(C)C)cc1 (mixture of isomers) [Example 66, Trans rac-(2S,4R)-4-hydroxy-N-[[4-(4-methylthiazol-5-yl)phenyl]methyl]-1-[rac-(2S)-2-[[7-[3-[3-amino-6-(2-hydroxyphenyl)pyridazin-4-yl]oxy-5-phenyl-1-piperidyl]-7-oxo-heptanoyl]amino]-3,3-dimethyl-butanoyl]pyrrolidine-2-carboxamide]
11 | – | 0.839 µM | 29% | Cc1ncsc1-c1ccc(CNC(=O)[C@@H]2C[C@@H](O)CN2C(=O)[C@@H](NC(=O)CCCCCCCCC(=O)N2CC(Oc3cc(-c4ccccc4O)nnc3N)CC(c3ccccc3)C2)C(C)(C)C)cc1 (mixture of isomers) [Example 67, Trans rac-(2S,4R)-4-hydroxy-N-[[4-(4-methylthiazol-5-yl)phenyl]methyl]-1-[rac-(2S)-2-[[10-[3-[3-amino-6-(2-hydroxyphenyl)pyridazin-4-yl]oxy-5-phenyl-1-piperidyl]-10-oxo-decanoyl]amino]-3,3-dimethyl-butanoyl]pyrrolidine-2-carboxamide]
12 | 60% | 2.11 µM | – | Cc1ncsc1-c1ccc([C@H](C)NC(=O)[C@@H]2C[C@@H](O)CN2C(=O)[C@@H](NC(=O)CCC(=O)N2CCN(CCOc3cccc(N4CCCC(Oc5cc(-c6ccccc6O)nnc5N)C4)c3)CC2)C(C)(C)C)cc1 (mixture of isomers) [Example 69, rac-(2S,4R)-4-hydroxy-1-[rac-(2S)-2-[[4-[4-[2-[3-[3-[3-amino-6-(2-hydroxyphenyl)pyridazin-4-yl]oxy-1-piperidyl]phenoxy]ethyl]piperazin-1-yl]-4-oxo-butanoyl]amino]-3,3-dimethyl-butanoyl]-N-[rac-(1S)-1-[4-(4-methylthiazol-5-yl)phenyl]ethyl]pyrrolidine-2-carboxamide]
13 | 50% | 1.18 µM | – | Cc1ncsc1-c1ccc([C@H](C)NC(=O)[C@@H]2C[C@@H](O)CN2C(=O)[C@@H](NC(=O)CCCCCC(=O)N2CCN(CCOc3cccc(N4CCCC(Oc5cc(-c6ccccc6O)nnc5N)C4)c3)CC2)C(C)(C)C)cc1 (mixture of isomers) [Example 70, rac-(2S,4R)-4-hydroxy-1-[rac-(2S)-2-[[7-[4-[2-[3-[3-[3-amino-6-(2-hydroxyphenyl)pyridazin-4-yl]oxy-1-piperidyl]phenoxy]ethyl]piperazin-1-yl]-7-oxo-heptanoyl]amino]-3,3-dimethyl-butanoyl]-N-[rac-(1S)-1-[4-(4-methylthiazol-5-yl)phenyl]ethyl]pyrrolidine-2-carboxamide]
14 | 38% | 0.522 µM | – | Cc1ncsc1-c1ccc([C@H](C)NC(=O)[C@@H]2C[C@@H](O)CN2C(=O)[C@@H](NC(=O)CCCCCCCCC(=O)N2CCN(CCOc3cccc(N4CCCC(Oc5cc(-c6ccccc6O)nnc5N)C4)c3)CC2)C(C)(C)C)cc1 (mixture of isomers) [Example 71, rac-(2S,4R)-4-hydroxy-1-[rac-(2S)-2-[[10-[4-[2-[3-[3-[3-amino-6-(2-hydroxyphenyl)pyridazin-4-yl]oxy-1-piperidyl]phenoxy]ethyl]piperazin-1-yl]-10-oxo-decanoyl]amino]-3,3-dimethyl-butanoyl]-N-[rac-(1S)-1-[4-(4-methylthiazol-5-yl)phenyl]ethyl]pyrrolidine-2-carboxamide]
15 | 35% | 0.421 µM | – | Cc1ncsc1-c1ccc([C@H](C)NC(=O)[C@@H]2C[C@@H](O)CN2C(=O)[C@@H](NC(=O)CCCCCCCCCCC(=O)N2CCN(CCOc3cccc(N4CCCC(Oc5cc(-c6ccccc6O)nnc5N)C4)c3)CC2)C(C)(C)C)cc1 (mixture of isomers) [Example 72, rac-(2S,4R)-4-hydroxy-1-[rac-(2S)-2-[[12-[4-[2-[3-[3-[3-amino-6-(2-hydroxyphenyl)pyridazin-4-yl]oxy-1-piperidyl]phenoxy]ethyl]piperazin-1-yl]-12-oxo-dodecanoyl]amino]-3,3-dimethyl-butanoyl]-N-[rac-(1S)-1-[4-(4-methylthiazol-5-yl)phenyl]ethyl]pyrrolidine-2-carboxamide]
